Experimental data published in patent US7411083B2, “Substituted acetic acid derivatives” (Wyeth, priority 2003, dated 2008).

target: T1, recombinant human plasminogen activator inhibitor-1 (PAI-1) (Homo sapiens, UniProt P05121); assay: Screening for PAI-1 inhibition (residual tPA activity, Spectrozyme-tPA chromogenic substrate); format: biochemical; conditions: test compound at 100 Um; pH 6.6 buffer, 140 nM PAI-1, 70 nM tPA
T1 construct: purchased Molecular Innovations, Royal Oak, Mich
Procedure: Screening for PAI-1 inhibition. Test compounds are dissolved in DMSO at a final concentration of 10 Mm, then diluted 100× in physiologic buffer. The inhibitory assay is initiated by the addition of the test compound (1-100 μM final concentration, maximum DMSO concentration of 0.2%) in a Ph 6.6 buffer containing 140 Nm recombinant human plasminogen activator inhibitor-1 (PAI-1; Molecular Innovations, Royal Oak, Mich.). Following a 1 hour incubation at room temperature, 70 Nm of recombinant human tissue plasminogen activator (Tpa) is added, and the combination of the test compound, PAI-1 and Tpa is incubated for an additional 30 minutes. Following the second incubation, Spectrozyme-Tpa (American Diagnostica, Greenwich, Conn.), a chromogenic substrate for Tpa, is added and absorbance read at 405 nm at 0 and 60 minutes. Relative PAI-1 inhibition is equal to the residual Tpa activity in the presence of the test compounds and PAI-1. Control treatments include the complete inhibition of Tpa by PAI-1 at the molar ratio employed (2:1), and the absence of any effect of the test compound on Tpa alone.

T1 sequence (P05121 24-402): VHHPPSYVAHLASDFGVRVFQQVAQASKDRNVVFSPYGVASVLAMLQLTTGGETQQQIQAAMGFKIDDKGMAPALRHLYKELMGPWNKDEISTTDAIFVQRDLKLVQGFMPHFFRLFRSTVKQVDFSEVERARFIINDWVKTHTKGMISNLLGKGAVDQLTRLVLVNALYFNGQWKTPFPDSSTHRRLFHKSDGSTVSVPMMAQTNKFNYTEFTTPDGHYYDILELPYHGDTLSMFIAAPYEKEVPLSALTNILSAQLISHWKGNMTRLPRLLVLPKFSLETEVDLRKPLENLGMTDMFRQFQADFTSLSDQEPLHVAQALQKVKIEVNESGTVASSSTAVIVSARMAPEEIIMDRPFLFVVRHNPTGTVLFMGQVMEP

Structure (SMILES) | inhibition at 100 µM [%]
O=C(O)CO/N=C/c1cccc(-c2ccc(OCc3cccc(C(F)(F)F)c3)cc2)c1 [Compound 80, ({[(1E)-(4′-{[3-(trifluoromethyl)benzyl]oxy}-1,1′-biphenyl-3-yl)methylidene]amino}oxy)acetic acid] | 78
O=C(O)CO/N=C/c1ccc(OCc2cccc(Cl)c2)c(OCc2cccc(Cl)c2)c1 [Compound 116, {[((1E)-{3,4-bis[(3-chlorobenzyl)oxy]phenyl}methylidene)amino]oxy}acetic acid] | 92
O=C(O)CO/N=C/c1cccc(C#CCOc2cccc(Cl)c2)c1 [Compound 172, {[((1E)-{3-[3-(3-chlorophenoxy)prop-1-ynyl]phenyl}methylidene)amino]oxy}acetic acid] | 44
CC(C)(C)c1ccc(COc2cc(/C=N/OCC(=O)O)cc(OCc3ccc(C(C)(C)C)cc3)c2)cc1 [Compound 146, {[((1E)-{3,5-bis[(4-tert-butylbenzyl)oxy]phenyl}methylidene)amino]oxy}acetic acid] | 49
C=CCn1cc(/C=N/OCC(=O)O)c2cc(OCc3ccc(C(C)(C)C)cc3)ccc21 [Compound 4, {[((1E)-{1-allyl-5-[(4-tert-butylbenzyl)oxy]-1H-indol-3-yl}methylidene)amino]oxy}acetic acid] | 83
O=C(O)CO/N=C/c1ccc(OCc2ccc(F)c(F)c2)c(OCc2ccc(F)c(F)c2)c1 [Compound 121, {[((1E)-{3,4-bis[(3,4-difluorobenzyl)oxy]phenyl}methylidene)amino]oxy}acetic acid] | 72
Cn1cc(/C=N/OCC(=O)O)c2cc(OCc3cccc(Cl)c3)ccc21 [Compound 39, {[((1E)-{5-[(3-chlorobenzyl)oxy]-1-methyl-1H-indol-3-yl}methylidene)amino]oxy}acetic acid] | 48
O=C(O)CO/N=C/c1ccc(OCc2cccc(Cl)c2)cc1OCc1cccc(Cl)c1 [Compound 127, {[((1E)-{2,4-bis[(3-chlorobenzyl)oxy]phenyl}methylidene)amino]oxy}acetic acid] | 88
CCn1cc(/C=N/OCC(=O)O)c2cc(OCc3ccc(C(C)(C)C)cc3)ccc21 [Compound 5, {[((1E)-{5-[(4-tert-butylbenzyl)oxy]-1-ethyl-1H-indol-3-yl}methylidene)amino]oxy}acetic acid] | 93
Cc1cccc(COc2ccc(/C=N/OCC(=O)O)cc2OCc2cccc(C)c2)c1 [Compound 118, {[((1E)-{3,4-bis[(3-methylbenzyl)oxy]phenyl}methylidene)amino]oxy}acetic acid] | 92
C=CCn1cc(/C=N/OCC(=O)O)c2cc(OCc3ccc(Cl)cc3)ccc21 [Compound 45, {[((1E)-{1-allyl-5-[(4-chlorobenzyl)oxy]-1H-indol-3-yl}methylidene)amino]oxy}acetic acid] | 96
O=C(O)CO/N=C/c1cccc(-c2cccc(OCc3cccc(C(F)(F)F)c3)c2)c1 [Compound 65, ({[(1E)-(3′-{[3-(trifluoromethyl)benzyl]oxy}-1,1′-biphenyl-3-yl)methylidene]amino}oxy)acetic acid] | 84
CC(C)(C)c1ccc(COc2ccc(-c3cccc(/C=N/OCC(=O)O)c3)cc2)cc1 [Compound 74, {[((1E)-{4′-[(4-tert-butylbenzyl)oxy]-1,1′-biphenyl-3-yl}methylidene)amino]oxy}acetic acid] | 34
O=C(O)CO/N=C/c1cn(Cc2ccccc2)c2ccc(OCc3ccc(Cl)cc3)cc12 [Compound 46, {[((1E)-{1-benzyl-5-[(4-chlorobenzyl)oxy]-1H-indol-3-yl}methylidene)amino]oxy}acetic acid] | 86
O=C(O)CO/N=C/c1ccc(C#CCOc2cccc(Cl)c2)cc1 [Compound 166, {[((1E)-{4-[3-(3-chlorophenoxy)prop-1-ynyl]phenyl}methylidene)amino]oxy}acetic acid] | 42
O=C(O)CO/N=C/c1cccc(OCc2ccc(C(F)(F)F)cc2)c1OCc1ccc(C(F)(F)F)cc1 [Compound 134, ({[(1E)-(2,3-bis{[4-(trifluoromethyl)benzyl]oxy}phenyl)methylidene]amino}oxy)acetic acid] | 100
C#CCn1cc(/C=N/OCC(=O)O)c2cc(OCc3ccccc3Cl)ccc21 [Compound 48, [({(1E)-[5-[(2-chlorobenzyl)oxy]-1-(2-propynyl)-1H-indol-3-yl]methylidene}amino)oxy]acetic acid] | 79
O=C(O)CO/N=C/c1ccc(-c2cccc(OCc3ccc(C(F)(F)F)cc3)c2)cc1 [Compound 88, ({[(1E)-(3′-{[4-(trifluoromethyl)benzyl]oxy}-1,1′-biphenyl-4-yl)methylidene]amino}oxy)acetic acid] | 34
Cc1ccc(COc2cc(/C=N/OCC(=O)O)cc(OCc3ccc(C)cc3)c2)cc1 [Compound 150, {[((1E)-{3,5-bis[(4-methylbenzyl)oxy]phenyl}methylidene)amino]oxy}acetic acid] | 90
O=C(O)CO/N=C/c1cn(Cc2ccccc2)c2ccc(OCc3cccc(Cl)c3)cc12 [Compound 18, {[((1E)-{1-benzyl-5-[(3-chlorobenzyl)oxy]-1H-indol-3-yl}methylidene)amino]oxy}acetic acid] | 84
O=C(O)CO/N=C/c1ccc(-c2cccc(OCc3cccc(Cl)c3)c2)cc1 [Compound 92, {[((1E)-{3′-[(3-chlorobenzyl)oxy]-1,1′-biphenyl-4-yl}methylidene)amino]oxy}acetic acid] | 76
O=C(O)CO/N=C/c1cccc(OCc2cccc(Br)c2)c1OCc1cccc(Br)c1 [Compound 137, {[((1E)-{2,3-bis[(3-bromobenzyl)oxy]phenyl}methylidene)amino]oxy}acetic acid] | 79
O=C(O)CO/N=C/c1cccc(-c2cccc(OCc3ccc(Cl)cc3)c2)c1 [Compound 66, {[((1E)-{3′-[(4-chlorobenzyl)oxy]-1,1′-biphenyl-3-yl}methylidene)amino]oxy}acetic acid] | 84
CCn1cc(/C=N/OCC(=O)O)c2cc(OCc3ccc(C(F)(F)F)cc3)ccc21 [Compound 2, ({[(1E)-(1-ethyl-5-{[4-(trifluoromethyl)benzyl]oxy}-1H-indol-3-yl)methylidene]amino}oxy)acetic acid] | 83
O=C(O)CO/N=C/c1ccc(OCc2ccc(Br)cc2)c(OCc2ccc(Br)cc2)c1 [Compound 115, {[((1E)-{3,4-bis[(4-bromobenzyl)oxy]phenyl}methylidene)amino]oxy}acetic acid] | 87
O=C(O)CO/N=C/c1ccc(-c2cccc(OCc3ccc(Cl)c(Cl)c3)c2)cc1 [Compound 97, {[((1E)-{3′-[(3,4-dichlorobenzyl)oxy]-1,1′-biphenyl-4-yl}methylidene)amino]oxy}acetic acid] | 65
O=C(O)CO/N=C/c1cn(Cc2ccccc2)c2ccc(OCc3ccccc3)cc12 [Compound 41, [({(1E)-[1-benzyl-5-(benzyloxy)-1H-indol-3-yl]methylidene}amino)oxy]acetic acid] | 96
Cc1cccc(COc2ccc(-c3cccc(/C=N/OCC(=O)O)c3)cc2)c1 [Compound 86, {[((1E)-{4′-[(3-methylbenzyl)oxy]-1,1′-biphenyl-3-yl}methylidene)amino]oxy}acetic acid] | 22
